Test results taken from the supplement of paper PMC11208160.

Experiment: recombinant UMI read abundance after kanamycin selection (control-corrected) (log10(CPM+1)); higher = more efficient recombination; extreme values may be limits of the assay; sequences stand for … in AGTGCAGAGAAAATCGGCCAGTTTTCTCTGCCTGCAGTCCGCATGCCGTGGGACCCCTTGGGTTCTAACCTGTTGCCTAGATTTATGCAGCGGACTGCCTTTCTCCCAAAGTGATAAACCGG…AGGTTGGTTTCACT; site = the 11-nt donor
Outline: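 The measure is log10(CPM+1) for recombinant UMIs. These were PCR-amplified across the donor–target junction and sequenced after Escherichia coli carrying a donor and donor-binding-loop pair library and a target plasmid with T7-inducible IS621 bridge recombinase was plated on IPTG (0.07 mM) plus kanamycin or unselected. CPM were averaged over two replicates and scaled by control-derived factors.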
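Note: IS621 bridge recombinase in Escherichia coli cells against a fixed T5 target plasmid.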

## CAAGTCTCATGGACCGGTTTTCCCGGTAATCCGTATTTGGG (site CAAGTCCCTCC)
  recombinant UMI read abundance (log10): 0.019

## CAAGTCTCATGGACCGGTTTTCCCGGTAATCCGTATTTGGG (site CAAGTCGCTCC)
  recombinant UMI read abundance (log10): 0.02

## CAAGTCTCATGGACCGGTTTTCCCGGTAATCCGTATTTGGG (site CAAGTCTCTCC)
  recombinant UMI read abundance (log10): 0.916

## CAAGTGACATGGACCGGTTTTCCCGGTAATCCGTATTTGGG (site CAAGTAACTCC)
  recombinant UMI read abundance (log10): 1.09

## CAAGTGACATGGACCGGTTTTCCCGGTAATCCGTATTTGGG (site CAAGTCACTCC)
  recombinant UMI read abundance (log10): 0.00913

## CAAGTGACATGGACCGGTTTTCCCGGTAATCCGTATTTGGG (site CAAGTGACTCC)
  recombinant UMI read abundance (log10): 0.246

## CAAGTGACATGGACCGGTTTTCCCGGTAATCCGTATTTGGG (site CAAGTTACTCC)
  recombinant UMI read abundance (log10): 0.48

## CAATACGCATGGACCGGTTTTCCCGGTAATCCGTATTTGAT (site CAATACGCTAT)
  recombinant UMI read abundance (log10): 2.03

## CAATACTCATGGACCGGTTTTCCCGGTAATCCGTATTTGAA (site CAATACTCTTT)
  recombinant UMI read abundance (log10): 3.09

## CAATACTCATGGACCGGTTTTCCCGGTAATCCGTATTTGAA (site CAATCCTCTTT)
  recombinant UMI read abundance (log10): 0

## CAATACTCATGGACCGGTTTTCCCGGTAATCCGTATTTGAA (site CAATGCTCTTT)
  recombinant UMI read abundance (log10): 0.0128

## CAATACTCATGGACCGGTTTTCCCGGTAATCCGTATTTGAA (site CAATTCTCTTT)
  recombinant UMI read abundance (log10): 0

## CAATCACCATGGACCGGTTTTCCCGGTAATCCGTATTTGCT (site CAATCACCTAG)
  recombinant UMI read abundance (log10): 0.00562

## CAATCACCATGGACCGGTTTTCCCGGTAATCCGTATTTGCT (site CGATCATCTAG)
  recombinant UMI read abundance (log10): 0

## CAATCATCATGGACCGGTTTTCCCGGTAATCCGTATTTGCT (site CAATCATCTAG)
  recombinant UMI read abundance (log10): 2.15

## CAATCATCATGGACCGGTTTTCCCGGTAATCCGTATTTGCT (site CCATCATCTAG)
  recombinant UMI read abundance (log10): 0.883

## CAATCATCATGGACCGGTTTTCCCGGTAATCCGTATTTGCT (site CGATCATCTAG)
  recombinant UMI read abundance (log10): 0.258

## CAATCATCATGGACCGGTTTTCCCGGTAATCCGTATTTGCT (site CTATCATCTAG)
  recombinant UMI read abundance (log10): 0.404

## CAATCTGCATGGACCGGTTTTCCCGGTAATCCGTATTTGCT (site CAATCTGCTAG)
  recombinant UMI read abundance (log10): 0.515

## CAATGCCCATGGACCGGTTTTCCCGGTAATCCGTATTTGAA (site CAATGCACTTT)
  recombinant UMI read abundance (log10): 0.00911

## CAATGCCCATGGACCGGTTTTCCCGGTAATCCGTATTTGAA (site CAATGCCCTTT)
  recombinant UMI read abundance (log10): 1

## CAATGCCCATGGACCGGTTTTCCCGGTAATCCGTATTTGAA (site CAATGCGCTTT)
  recombinant UMI read abundance (log10): 0.00922

## CAATGCCCATGGACCGGTTTTCCCGGTAATCCGTATTTGAA (site CAATGCTCTTT)
  recombinant UMI read abundance (log10): 1.62

## CAATGCTCATGGACCGGTTTTCCCGGTAATCCGTATTTGAG (site CAATGCTCTAT)
  recombinant UMI read abundance (log10): 1.46

## CAATGCTCATGGACCGGTTTTCCCGGTAATCCGTATTTGAG (site CAATGCTCTCT)
  recombinant UMI read abundance (log10): 2.2

## CAATGCTCATGGACCGGTTTTCCCGGTAATCCGTATTTGAG (site CAATGCTCTGT)
  recombinant UMI read abundance (log10): 0.535

## CAATGCTCATGGACCGGTTTTCCCGGTAATCCGTATTTGAG (site CAATGCTCTTT)
  recombinant UMI read abundance (log10): 0.812

## CAATGGCCATGGACCGGTTTTCCCGGTAATCCGTATTTGCG (site CAATGGCCTCG)
  recombinant UMI read abundance (log10): 0.00456

## CAATGGTCATGGACCGGTTTTCCCGGTAATCCGTATTTGAA (site CAATGATCTTT)
  recombinant UMI read abundance (log10): 2.68

## CAATGGTCATGGACCGGTTTTCCCGGTAATCCGTATTTGAA (site CAATGCTCTTT)
  recombinant UMI read abundance (log10): 0.00506

## CAATGGTCATGGACCGGTTTTCCCGGTAATCCGTATTTGAA (site CAATGGTCTTT)
  recombinant UMI read abundance (log10): 2.39

## CAATGGTCATGGACCGGTTTTCCCGGTAATCCGTATTTGAA (site CAATGTTCTTT)
  recombinant UMI read abundance (log10): 0

## CAATGTTCATGGACCGGTTTTCCCGGTAATCCGTATTTGAA (site CAATGATCTTT)
  recombinant UMI read abundance (log10): 0.287

## CAATGTTCATGGACCGGTTTTCCCGGTAATCCGTATTTGAA (site CAATGCTCTTT)
  recombinant UMI read abundance (log10): 0.0108

## CAATGTTCATGGACCGGTTTTCCCGGTAATCCGTATTTGAA (site CAATGGTCTTT)
  recombinant UMI read abundance (log10): 0.0106

## CAATGTTCATGGACCGGTTTTCCCGGTAATCCGTATTTGAA (site CAATGTTCTTT)
  recombinant UMI read abundance (log10): 2.11

## CAATTAACATGGACCGGTTTTCCCGGTAATCCGTATTTGCT (site CAATTAACTAG)
  recombinant UMI read abundance (log10): 0.982

## CAATTCACATGGACCGGTTTTCCCGGTAATCCGTATTTGGG (site CAAATCACTCC)
  recombinant UMI read abundance (log10): 0.839

## CAATTCACATGGACCGGTTTTCCCGGTAATCCGTATTTGGG (site CAACTCACTCC)
  recombinant UMI read abundance (log10): 0.251

## CAATTCACATGGACCGGTTTTCCCGGTAATCCGTATTTGGG (site CAAGTCACTCC)
  recombinant UMI read abundance (log10): 0.0135

## CAATTCACATGGACCGGTTTTCCCGGTAATCCGTATTTGGG (site CAATTCACTCC)
  recombinant UMI read abundance (log10): 0.0754

## CAATTCCCATGGACCGGTTTTCCCGGTAATCCGTATTTGCA (site CAATTCCCTAG)
  recombinant UMI read abundance (log10): 0

## CAATTCCCATGGACCGGTTTTCCCGGTAATCCGTATTTGCA (site CAATTCCCTCG)
  recombinant UMI read abundance (log10): 0.00698

## CAATTCCCATGGACCGGTTTTCCCGGTAATCCGTATTTGCA (site CAATTCCCTGG)
  recombinant UMI read abundance (log10): 0

## CAATTCCCATGGACCGGTTTTCCCGGTAATCCGTATTTGCA (site CAATTCCCTTG)
  recombinant UMI read abundance (log10): 1.27

## CAATTCTCATGGACCGGTTTTCCCGGTAATCCGTATTTGCT (site CAATTCACTAG)
  recombinant UMI read abundance (log10): 0.75

## CAATTCTCATGGACCGGTTTTCCCGGTAATCCGTATTTGCT (site CAATTCCCTAG)
  recombinant UMI read abundance (log10): 0.421

## CAATTCTCATGGACCGGTTTTCCCGGTAATCCGTATTTGCT (site CAATTCGCTAG)
  recombinant UMI read abundance (log10): 0

## CAATTCTCATGGACCGGTTTTCCCGGTAATCCGTATTTGCT (site CAATTCTCTAG)
  recombinant UMI read abundance (log10): 2.19

## CACAACACATGGACCGGTTTTCCCGGTAATCCGTATTTGAC (site CACAACACTGT)
  recombinant UMI read abundance (log10): 2.79

## CACATGGCATGGACCGGTTTTCCCGGTAATCCGTATTTGGA (site CACATGGCTTC)
  recombinant UMI read abundance (log10): 0.785

## CACATGGCATGGACCGGTTTTCCCGGTAATCCGTATTTGGA (site CACCTGGCTTC)
  recombinant UMI read abundance (log10): 0.346

## CACATGGCATGGACCGGTTTTCCCGGTAATCCGTATTTGGA (site CACGTGGCTTC)
  recombinant UMI read abundance (log10): 0.414

## CACATGGCATGGACCGGTTTTCCCGGTAATCCGTATTTGGA (site CACTTGGCTTC)
  recombinant UMI read abundance (log10): 0.388

## CACATTGCATGGACCGGTTTTCCCGGTAATCCGTATTTGGT (site CACATTGCTAC)
  recombinant UMI read abundance (log10): 1.69

## CACCATGCATGGACCGGTTTTCCCGGTAATCCGTATTTGCG (site CACCATGCTCG)
  recombinant UMI read abundance (log10): 1.28

## CACCCCTCATGGACCGGTTTTCCCGGTAATCCGTATTTGCC (site CACACCTCTGG)
  recombinant UMI read abundance (log10): 0
